From US20260042867A1, “ANTIBODY REPURPOSING” (priority 2022, published 2026)
Where two headings read alike, the source gives them in different places.

Key:
Assay type in all cases: binding, SARS-COV-2
[1] = target: SRBD - omicron
[2] = target: SARS-Cov2 SRBD and anti-alpha-Gal antibody (Severe acute respiratory syndrome coronavirus 2, UniProt P0DTC2)
[3] = test system: Omicron S1/S2 ECD and anti-alpha-Gal antibody

Row | Structure (SMILES) | Kd ([1]; BLI, SRBD - omicron, global 1:2 fitting) | antibody repurposing of alpha Gal antibodies (ELISA signal) [2] | antibody repurposing of alpha Gal antibodies (ELISA signal) [3] | Kd [1]
1 | COC[C@H](NC(=O)[C@@H](CCCCN)NC(=O)[C@H]1c2ccccc2C(=O)N(CCCNC(=O)Cc2ccc(CNC(=O)[C@@H](NC(=O)[C@@H](CCCCN)NC(=O)[C@H]3c4ccccc4C(=O)N(CCCNC(=O)Cc4ccc(CNC(=O)[C@H](CC5CC5)NC(=O)[C@H]5c6ccccc6C(=O)N(CCCNC(=O)[C@@H](C)NC(=O)Cc6ccc(CNC(=O)[C@H](C)NC(=O)[C@@H](CCCCN)NC(=O)[C@H]7c8ccccc8C(=O)N(CCCNC(=O)Cc8ccc(CNC(=O)[C@H](C)NC(=O)CNC(=O)[C@H]9c%10ccccc%10C(=O)N(CCCNC(=O)Cc%10ccc(CNC(=O)[C@H](C)NC(=O)[C@@H](CCC(=O)O)NC(=O)[C@H]%11c%12ccccc%12C(=O)N(CCCNC(=O)Cc%12ccc(CNC(=O)[C@H](Cc%13ccc(F)cc%13)NC(=O)[C@H]%13c%14ccccc%14C(=O)N(CCCNC(=O)[C@@H](CCC(=O)O)NC(=O)Cc%14ccc(CNC(=O)[C@H](C)NC(=O)CNC(=O)[C@H]%15c%16ccccc%16C(=O)N(CCCN)[C@@H]%15c%15ccc(CCC(=O)O)cc%15)cc%14)[C@@H]%13c%13cccc(Oc%14ccccc%14)c%13)cc%12)[C@@H]%11c%11ccc(CCC(=O)O)cc%11)cc%10)[C@@H]9c9cccnc9)cc8)[C@@H]7c7ccc(CCC(=O)O)cc7)cc6)[C@@H]5c5cccc(Oc6ccccc6)c5)cc4)[C@@H]3c3ccccc3)C(C)C)cc2)[C@@H]1c1ccc(O)cc1)C(=O)NCc1ccc(CC(N)=O)cc1 [Technein 16838-89-7] | 7 nM |  |  | 
2 | COC[C@H](NC(=O)[C@H]1c2ccccc2C(=O)N(CCCNC(=O)[C@@H](C)NC(=O)Cc2ccc(CNC(=O)[C@H](Cc3ccc(F)cc3)NC(=O)[C@H]3c4ccccc4C(=O)N(CCCNC(=O)CNC(=O)Cc4ccc(CNC(=O)[C@H](Cc5ccc(F)cc5)NC(=O)[C@H]5c6ccccc6C(=O)N(CCCNC(=O)[C@@H](CCC(=O)O)NC(=O)Cc6ccc(CNC(=O)[C@H](C)NC(=O)[C@H]7c8ccccc8C(=O)N(CCCNC(=O)[C@@H](C)N)[C@@H]7c7ccc(CCC(=O)O)cc7)cc6)[C@@H]5c5cccc(Oc6ccccc6)c5)cc4)[C@@H]3c3ccc(O)cc3)cc2)[C@@H]1c1ccc(O)cc1)C(=O)NCc1ccc(CC(=O)NCC(=O)NCCCN2C(=O)c3ccccc3[C@H](C(=O)N[C@@H](CC3CC3)C(=O)NCc3ccc(CC(=O)N[C@H](CCC(=O)O)C(=O)NCCCN4C(=O)c5ccccc5[C@H](C(=O)N[C@@H](C)C(=O)NCc5ccc(CC(=O)NCCCN6C(=O)c7ccccc7[C@H](C(=O)N[C@H](CCCCN)C(=O)N[C@H](C(=O)NCc7ccc(CC(=O)N[C@H](C)C(=O)NCCCN8C(=O)c9ccccc9[C@H](C(=O)N[C@@H](CC9CC9)C(=O)NCc9ccc(CC(N)=O)cc9)[C@H]8c8ccc(CCC(=O)O)cc8)cc7)C(C)C)[C@H]6c6ccccc6)cc5)[C@H]4c4cccnc4)cc3)[C@H]2c2cccnc2)cc1 [Technein 16838-89-8] |  | significantly lower levels of antibody repurposing | significantly lower levels of antibody repurposing | 4 nM
